# From PubChem BioAssay AID1963980 (Molecular Pharmacology Branch, DTP, NCI, 2024)
# Tested on: 475296-252-R-J1-PDC spheroid viability
# Assay: Anticancer human tumor 475296-252-R-J1-PDC patient-derived rectal carcinoma cell line growth inhibition [PI3K]
# Conditions: second compound 1 µM; first compound 0.316 µM; stronger effect = lower value; spheroids with HUVEC and MSC
# Summary of the method: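 Tumor cells grown as multi-cell spheroids with HUVEC endothelial cells and MSC fibroblast-like stroma were treated with targeted agents combined with inavolisib, alpelisib, duvelisib or copanlisib. Doses fell in half-log steps from near clinical Cmax, else from 10 microM. Viability was measured.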
# 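Further: spheroids exposed to agents for seven days before readout.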
row,SMILES,"viability, T/C [%]"
1,C=CC(=O)N1CCN(c2nc(=O)n(-c3c(C)ccnc3C(C)C)c3nc(-c4c(O)cccc4F)c(F)cc23)C(C)C1 (stereo unspecified) + Cc1nc(NC(=O)N2CCCC2C(N)=O)sc1-c1ccnc(C(C)(C)C(F)(F)F)c1,99.8
2,CC(Cn1ccc(-c2ccc(C#N)c(Cl)c2)n1)NC(=O)c1cc(C(C)O)[nH]n1 (stereo unspecified) + Cc1nc(NC(=O)N2CCCC2C(N)=O)sc1-c1ccnc(C(C)(C)C(F)(F)F)c1,91.4
3,Cn1ncc(Cl)c1-c1cc(C(=O)NC(CN)Cc2cccc(F)c2)sc1Cl (stereo unspecified) + Cc1nc(NC(=O)N2CCCC2C(N)=O)sc1-c1ccnc(C(C)(C)C(F)(F)F)c1,78
4,Cn1nccc1Nc1nccc(-c2ccn(C(CO)c3ccc(Cl)c(F)c3)c(=O)c2)n1 (stereo unspecified) + Cc1nc(NC(=O)N2CCCC2C(N)=O)sc1-c1ccnc(C(C)(C)C(F)(F)F)c1,91

# Same assay, conditions: second compound 1 µM; first compound 1 µM; stronger effect = lower value; spheroids with HUVEC and MSC
row,SMILES,"viability, T/C [%]"
1,C#Cc1c(F)ccc2cc(O)cc(-c3ncc4c(N5CC6CCC(C5)N6)nc(OCC56CCCN5CC(F)C6)nc4c3F)c12 (stereo unspecified) + Cc1nc(NC(=O)N2CCCC2C(N)=O)sc1-c1ccnc(C(C)(C)C(F)(F)F)c1,65.5
2,C=CC(=O)N1CCN(c2nc(=O)n(-c3c(C)ccnc3C(C)C)c3nc(-c4c(O)cccc4F)c(F)cc23)C(C)C1 (stereo unspecified) + Cc1nc(NC(=O)N2CCCC2C(N)=O)sc1-c1ccnc(C(C)(C)C(F)(F)F)c1,97.5
3,CC(Cn1ccc(-c2ccc(C#N)c(Cl)c2)n1)NC(=O)c1cc(C(C)O)[nH]n1 (stereo unspecified) + Cc1nc(NC(=O)N2CCCC2C(N)=O)sc1-c1ccnc(C(C)(C)C(F)(F)F)c1,99.2
4,Cn1ncc(Cl)c1-c1cc(C(=O)NC(CN)Cc2cccc(F)c2)sc1Cl (stereo unspecified) + Cc1nc(NC(=O)N2CCCC2C(N)=O)sc1-c1ccnc(C(C)(C)C(F)(F)F)c1,58.5
5,Cn1nccc1Nc1nccc(-c2ccn(C(CO)c3ccc(Cl)c(F)c3)c(=O)c2)n1 (stereo unspecified) + Cc1nc(NC(=O)N2CCCC2C(N)=O)sc1-c1ccnc(C(C)(C)C(F)(F)F)c1,84.5

# Same assay, conditions: second compound 1 µM; first compound 3.16 µM; stronger effect = lower value; spheroids with HUVEC and MSC
row,SMILES,"viability, T/C [%]"
1,C#Cc1c(F)ccc2cc(O)cc(-c3ncc4c(N5CC6CCC(C5)N6)nc(OCC56CCCN5CC(F)C6)nc4c3F)c12 (stereo unspecified) + Cc1nc(NC(=O)N2CCCC2C(N)=O)sc1-c1ccnc(C(C)(C)C(F)(F)F)c1,60.3
2,C=CC(=O)N1CCN(c2nc(=O)n(-c3c(C)ccnc3C(C)C)c3nc(-c4c(O)cccc4F)c(F)cc23)C(C)C1 (stereo unspecified) + Cc1nc(NC(=O)N2CCCC2C(N)=O)sc1-c1ccnc(C(C)(C)C(F)(F)F)c1,109
3,CC(Cn1ccc(-c2ccc(C#N)c(Cl)c2)n1)NC(=O)c1cc(C(C)O)[nH]n1 (stereo unspecified) + Cc1nc(NC(=O)N2CCCC2C(N)=O)sc1-c1ccnc(C(C)(C)C(F)(F)F)c1,111
4,Cn1ncc(Cl)c1-c1cc(C(=O)NC(CN)Cc2cccc(F)c2)sc1Cl (stereo unspecified) + Cc1nc(NC(=O)N2CCCC2C(N)=O)sc1-c1ccnc(C(C)(C)C(F)(F)F)c1,62.8
5,Cn1nccc1Nc1nccc(-c2ccn(C(CO)c3ccc(Cl)c(F)c3)c(=O)c2)n1 (stereo unspecified) + Cc1nc(NC(=O)N2CCCC2C(N)=O)sc1-c1ccnc(C(C)(C)C(F)(F)F)c1,88

# Same assay, conditions: second compound 1 µM; first compound 10 µM; stronger effect = lower value; spheroids with HUVEC and MSC
row,SMILES,"viability, T/C [%]"
1,C#Cc1c(F)ccc2cc(O)cc(-c3ncc4c(N5CC6CCC(C5)N6)nc(OCC56CCCN5CC(F)C6)nc4c3F)c12 (stereo unspecified) + Cc1nc(NC(=O)N2CCCC2C(N)=O)sc1-c1ccnc(C(C)(C)C(F)(F)F)c1,32.7
2,C=CC(=O)N1CCN(c2nc(=O)n(-c3c(C)ccnc3C(C)C)c3nc(-c4c(O)cccc4F)c(F)cc23)C(C)C1 (stereo unspecified) + Cc1nc(NC(=O)N2CCCC2C(N)=O)sc1-c1ccnc(C(C)(C)C(F)(F)F)c1,95.8
3,CC(Cn1ccc(-c2ccc(C#N)c(Cl)c2)n1)NC(=O)c1cc(C(C)O)[nH]n1 (stereo unspecified) + Cc1nc(NC(=O)N2CCCC2C(N)=O)sc1-c1ccnc(C(C)(C)C(F)(F)F)c1,111
4,Cn1ncc(Cl)c1-c1cc(C(=O)NC(CN)Cc2cccc(F)c2)sc1Cl (stereo unspecified) + Cc1nc(NC(=O)N2CCCC2C(N)=O)sc1-c1ccnc(C(C)(C)C(F)(F)F)c1,51.2
5,Cn1nccc1Nc1nccc(-c2ccn(C(CO)c3ccc(Cl)c(F)c3)c(=O)c2)n1 (stereo unspecified) + Cc1nc(NC(=O)N2CCCC2C(N)=O)sc1-c1ccnc(C(C)(C)C(F)(F)F)c1,59.9

# Same assay, conditions: second compound 3.16 µM; first compound 0.0316 µM; stronger effect = lower value; spheroids with HUVEC and MSC
row,SMILES,"viability, T/C [%]"
1,C#Cc1c(F)ccc2cc(O)cc(-c3ncc4c(N5CC6CCC(C5)N6)nc(OCC56CCCN5CC(F)C6)nc4c3F)c12 (stereo unspecified) + Cc1nc(NC(=O)N2CCCC2C(N)=O)sc1-c1ccnc(C(C)(C)C(F)(F)F)c1,89.1
2,C=CC(=O)N1CCN(c2nc(=O)n(-c3c(C)ccnc3C(C)C)c3nc(-c4c(O)cccc4F)c(F)cc23)C(C)C1 (stereo unspecified) + Cc1nc(NC(=O)N2CCCC2C(N)=O)sc1-c1ccnc(C(C)(C)C(F)(F)F)c1,83.6
3,CC(Cn1ccc(-c2ccc(C#N)c(Cl)c2)n1)NC(=O)c1cc(C(C)O)[nH]n1 (stereo unspecified) + Cc1nc(NC(=O)N2CCCC2C(N)=O)sc1-c1ccnc(C(C)(C)C(F)(F)F)c1,98.4
4,Cn1ncc(Cl)c1-c1cc(C(=O)NC(CN)Cc2cccc(F)c2)sc1Cl (stereo unspecified) + Cc1nc(NC(=O)N2CCCC2C(N)=O)sc1-c1ccnc(C(C)(C)C(F)(F)F)c1,83.1
5,Cn1nccc1Nc1nccc(-c2ccn(C(CO)c3ccc(Cl)c(F)c3)c(=O)c2)n1 (stereo unspecified) + Cc1nc(NC(=O)N2CCCC2C(N)=O)sc1-c1ccnc(C(C)(C)C(F)(F)F)c1,85.9

# Same assay, conditions: second compound 3.16 µM; first compound 0.1 µM; stronger effect = lower value; spheroids with HUVEC and MSC
row,SMILES,"viability, T/C [%]"
1,C#Cc1c(F)ccc2cc(O)cc(-c3ncc4c(N5CC6CCC(C5)N6)nc(OCC56CCCN5CC(F)C6)nc4c3F)c12 (stereo unspecified) + Cc1nc(NC(=O)N2CCCC2C(N)=O)sc1-c1ccnc(C(C)(C)C(F)(F)F)c1,75.3
2,C=CC(=O)N1CCN(c2nc(=O)n(-c3c(C)ccnc3C(C)C)c3nc(-c4c(O)cccc4F)c(F)cc23)C(C)C1 (stereo unspecified) + Cc1nc(NC(=O)N2CCCC2C(N)=O)sc1-c1ccnc(C(C)(C)C(F)(F)F)c1,85
